Activity calls are given as the source filed them. The rule behind the calls is not given here.
Legend:
Tubulin = test: Inhibition of tubulin polymerization (unknown origin) by spectrophotometric analysis; format: protein-complex assay, Homo sapiens
[1] = target: Neuropilin-1 (Homo sapiens) (UniProt O14786); test: Inhibition of [125I]-VEGF-A165 binding to NRP1 (unknown origin) transfected in HUVECs at 12 uM incubated for 2 hrs by plate reader analysis relative to control; format: cell-based; conditions: HUVEC
Target sequence in this assay (O14786 whole entry): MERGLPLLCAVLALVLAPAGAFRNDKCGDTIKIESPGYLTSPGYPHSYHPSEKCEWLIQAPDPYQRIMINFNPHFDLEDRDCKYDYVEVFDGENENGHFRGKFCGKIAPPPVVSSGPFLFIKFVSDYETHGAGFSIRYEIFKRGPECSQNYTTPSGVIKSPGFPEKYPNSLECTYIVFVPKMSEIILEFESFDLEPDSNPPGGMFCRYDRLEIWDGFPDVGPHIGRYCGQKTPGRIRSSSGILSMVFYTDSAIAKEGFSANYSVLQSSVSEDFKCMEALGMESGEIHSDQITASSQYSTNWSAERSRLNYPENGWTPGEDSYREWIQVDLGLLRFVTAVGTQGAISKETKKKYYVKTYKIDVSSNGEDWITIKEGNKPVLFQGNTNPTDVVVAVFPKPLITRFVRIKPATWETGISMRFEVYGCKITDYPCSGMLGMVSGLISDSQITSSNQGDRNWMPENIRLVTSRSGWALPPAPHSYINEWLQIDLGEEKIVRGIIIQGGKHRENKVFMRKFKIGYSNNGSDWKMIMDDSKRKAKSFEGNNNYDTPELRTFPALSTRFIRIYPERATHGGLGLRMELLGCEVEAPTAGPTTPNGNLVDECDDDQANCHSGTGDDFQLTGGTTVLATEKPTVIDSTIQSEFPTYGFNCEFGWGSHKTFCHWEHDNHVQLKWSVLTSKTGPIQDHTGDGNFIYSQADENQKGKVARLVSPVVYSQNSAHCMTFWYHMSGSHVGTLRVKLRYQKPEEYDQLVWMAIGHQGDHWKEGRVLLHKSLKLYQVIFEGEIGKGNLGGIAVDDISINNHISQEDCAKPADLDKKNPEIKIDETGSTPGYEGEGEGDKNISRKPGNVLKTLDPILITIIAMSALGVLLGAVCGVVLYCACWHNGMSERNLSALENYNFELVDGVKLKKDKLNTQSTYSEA

Tubulin (Homo sapiens) = Tubulin (Homo sapiens) (UniProt P68371+Q9H4B7+P0DPH7+P68366+Q13509+Q71U36+P04350+Q3ZCM7+P07437+P68363+Q9BQE3+Q6PEY2+Q13885+Q9BVA1+Q9BUF5); test: Inhibition of tubulin polymerization (unknown origin) at 12 uM by spectrophotometric analysis relative to control; format: protein-complex assay
[2] = target: Neuropilin-1 (Homo sapiens) (UniProt O14786); test: Inhibition of [125I]-VEGF-A165 binding to NRP1 (unknown origin) transfected in HUVECs incubated for 2 hrs by plate reader analysis; conditions: HUVEC
Target sequence in this assay (O14786 whole entry, looked up): as the sequence (O14786 whole entry) above

PC-3 = test: Cytotoxicity against human PC-3 cells assessed as inhibition of cell viability incubated for 48 hrs by MTT assay; format: functional, cell-based; conditions: PC-3, 48 h
[3] = Cytotoxicity against human PrEC cells assessed as inhibition of cell viability incubated for 48 hrs by MTT assay; format: toxicity, cell-based

COc1ccc(/C=C\c2cc(OC)c(OC)c(OC)c2)cc1NC(=O)CCCCC(=O)N[C@@H](CCCNC(=N)N)C(=O)O
IC50 (Tubulin): 7.15 µM

N=C(N)NCC(C[C@H](NCc1ccccc1)C(=O)O)[N+](=O)[O-] (stereo partly drawn)
inhibition [1]: 60%

COc1ccc(/C=C\c2cc(OC)c(OC)c(OC)c2)cc1NC(=O)/C=C/C(=O)N[C@@H](CCCNC(=N)N)C(=O)O
IC50 (Tubulin): 1.53 µM

COc1cc(C(=O)/C=C/c2c[nH]c3ccc(Br)cc23)cc(OC)c1OC
inhibition (Tubulin (Homo sapiens)): 63%

COC(=O)[C@H](CCCNC(=N)N)NC(=O)CCCCC(=O)Nc1cc(/C=C\c2cc(OC)c(OC)c(OC)c2)ccc1OC
IC50 (Tubulin): 9.34 µM | inhibition [2]: inactive

COc1cc(C(O)c2cc3c(cc2CO)OCO3)cc(OC)c1OC (stereo not drawn)
inhibition (Tubulin (Homo sapiens)): 64% | inhibition [1]: 47%

COc1cc(C(=O)/C=C/Nc2cccc(C)c2)cc(OC)c1OC
inhibition (Tubulin (Homo sapiens)): 45%

COc1ccc(/C=C\c2cc(OC)c(OC)c(OC)c2)cc1NC(=O)CCCC(=O)N[C@@H](CCCNC(=N)N)C(=O)O
IC50 (Tubulin): 5.57 µM

COc1cc([C@@H]2CC(=O)c3cnc(N4CCN(CCO)CC4)nc3C2)cc(OC)c1OC
inhibition (Tubulin (Homo sapiens)): 48%

N=C(N)NCCC[C@H](NC(=O)c1ccccc1)C(=O)O
inhibition [1]: 79%

COc1cc(-c2cc(C(F)(F)F)n3ncc(C(=O)NCC(C)C)c3n2)cc(OC)c1OC
inhibition (Tubulin (Homo sapiens)): 21%

COc1ccc2c(c1)OC(c1cc(OC)c(OC)c(OC)c1)CC2=O (stereo not drawn)
inhibition (Tubulin (Homo sapiens)): 52%

COc1cc(C2OC2C(=O)c2ccccc2)cc(OC)c1OC (stereo not drawn)
inhibition (Tubulin (Homo sapiens)): 15%

COc1ccc(/C=C\c2cc(OC)c(OC)c(OC)c2)cc1O [COMBRETASTATIN A4]
IC50 (PC-3): 60 nM | IC50 at 48 h [3]: 80 nM | inhibition [2]: inactive

COc1cc(O)c(/C=C/C(=O)c2cc(OC)c(OC)c(OC)c2)c(OC)c1
inhibition (Tubulin (Homo sapiens)): 71%

COC(=O)[C@H](CCCNC(=N)N)NC(=O)CCCCCCC(=O)Nc1cc(/C=C\c2cc(OC)c(OC)c(OC)c2)ccc1OC
inhibition [2]: inactive

COc1cc2c(cc1OC)C(c1cc(OC)c(OC)c(OC)c1)OCC2 (stereo not drawn)
inhibition (Tubulin (Homo sapiens)): 69%

N=C(N)NCCC[C@H](NC(=O)c1sccc1NS(=O)(=O)c1cccc2nsnc12)C(=O)O
inhibition [1]: 87%

Cc1ccc(S(=O)(=O)N[C@@H](CCCNC(=N)N)C(=O)O)cc1
inhibition [1]: 82%

COC(=O)[C@H](CCCNC(=N)N)NC(=O)/C=C/C(=O)Nc1cc(/C=C\c2cc(OC)c(OC)c(OC)c2)ccc1OC
IC50 (Tubulin): 4.14 µM | inhibition [2]: inactive

COC(=O)[C@H](CCCNC(=N)N)NC(=O)CCCC(=O)Nc1cc(/C=C\c2cc(OC)c(OC)c(OC)c2)ccc1OC
IC50 (Tubulin): 7.96 µM | inhibition [2]: inactive

COc1cc(-c2cc(-n3c(S)nc4ccccc4c3=O)[nH]n2)cc(OC)c1OC
inhibition (Tubulin (Homo sapiens)): 28%

Reference: ChEMBL document CHEMBL5375999, “Discovery of a Dual Tubulin and Neuropilin-1 (NRP1) Inhibitor with Potent In Vivo Anti-Tumor Activity via Pharmacophore-based Docking Screening, Structure Optimization, and Biological Evaluation” (J Med Chem, 2023)
